“And” between values parts separate entries of the source, which are not always exact repeats. Equal values may be shown once.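 Cultured in 96-well plates, cells were exposed to test compound for 48 hours across five concentrations. GI50 = concentration required for 50% inhibition of growth. TGI: total growth inhibition.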
Tests used:
Experiment in all cases: growth of human tumour cells (NCI), 48 h
[1] = test system: NCI-H23 lung
[2] = test system: SF-295 CNS
[3] = test system: U251 CNS
[4] = test system: HT29 colon
[5] = test system: BT-549 breast
[6] = test system: M14 melanoma
[7] = test system: COLO 205 colon
[8] = test system: NCI-H226 lung
[9] = test system: SK-OV-3 ovarian
[10] = test system: MALME-3M melanoma

SMILES | TGI [1] | GI50 [2] | TGI [2] | TGI [3] | GI50 [4] | TGI [4] | TGI [5] | TGI [6] | GI50 [7] | TGI [7] | GI50 [8] | TGI [8] | GI50 [9] | TGI [9] | GI50 [10] | TGI [10] | GI50 [1] | GI50 [3] | GI50 [5] | GI50 [6]
CC[C@@]1(O)C(=O)OCc2c1cc1n(c2=O)Cc2cc3cc(O)ccc3nc2-1 | 0.109 µM and 0.0424 µM | 0.0282 µM and 0.029 µM | 0.799 µM and 3.91 µM | 0.0327 µM | 0.16 µM and 0.167 µM | 18.4 µM | 26.6 µM | 1.39 µM | 0.573 µM | 2.36 µM and 2.56 µM | 0.0162 µM and 0.0165 µM | 0.0907 µM and 0.113 µM | < 0.0124 µM | 0.7 µM and 1.85 µM | 0.0567 µM | 1.45 µM and 0.877 µM |  |  |  | 
CCNCCS(=O)(=O)NC[C@@]1(c2ccccc2)SC(NC(=O)C(C)(C)C)=NN1C(=O)C(C)(C)C | > 100 µM | < 0.01 µM | 1.16 µM | > 100 µM | < 0.01 µM | > 100 µM | > 100 µM | 0.0209 µM | < 0.01 µM | 12.1 µM | > 100 µM | > 100 µM | < 0.01 µM | > 100 µM | 10.6 µM | 30.2 µM | 0.0282 µM | < 0.01 µM | 0.357 µM | < 0.01 µM
COc1cccc(N2C(=N)/C(=C3\Nc4ccccc4S3)CC2=O)c1 | > 100 µM | 1.64 µM | 8.1 µM | > 100 µM | 3.34 µM | > 100 µM | > 100 µM | > 100 µM | 9.25 µM | > 100 µM | 38.3 µM | > 100 µM | 1.77 µM | > 100 µM | > 100 µM | > 100 µM | 39.4 µM | 3.89 µM | 44.9 µM | > 100 µM
Oc1c(Cl)cc(Cl)c(Cl)c1Cc1c(O)c(Cl)cc(Cl)c1Cl | 12 µM | 0.34 µM | 2.05 µM | 12.7 µM | 2.81 µM | 12.4 µM | 10.3 µM | 13.9 µM | 2.68 µM | 15 µM | 2.46 µM | 13 µM | 2.53 µM | 11.6 µM | 1.66 µM | 5.93 µM | 0.593 µM | 1.09 µM | 1.26 µM | 1.38 µM
Cc1cc2c3c(nc4ccccc42)C(=O)c2cccnc2-c3n1 | 0.466 µM | 0.541 µM | 1.91 µM | 6.93 µM | 0.663 µM | 2.03 µM | 2.41 µM |  | 1.13 µM | 2.45 µM | 0.942 µM | 3.26 µM | 0.25 µM | 1.07 µM | 0.426 µM | 1.39 µM | 0.142 µM | 0.413 µM | 1.15 µM | 0.479 µM
Nc1ncc(-c2ccc3ncnc(N4CCc5cc(F)c(Cl)cc54)c3c2)cc1C=O | > 100 µM | 1.32 µM | > 27.9 µM | > 100 µM | 1.57 µM | > 100 µM | > 100 µM | > 100 µM | 1.9 µM | > 100 µM | 0.861 µM | > 100 µM | 1.04 µM | 6.42 µM | 1.13 µM | > 100 µM | 2.35 µM | 2.7 µM | 1.31 µM | 1.85 µM
O=C(O)C1CC[N-]CC1.O=C(O)C1CC[N-]CC1.[NH2-].[NH2-].[Pt+4] | > 100 µM | > 100 µM | > 100 µM | > 100 µM | > 100 µM | > 100 µM | > 100 µM | > 100 µM | > 100 µM | > 100 µM | > 100 µM | > 100 µM | > 100 µM | > 100 µM | > 100 µM | > 100 µM | > 100 µM | > 100 µM | > 100 µM | > 100 µM
N#CC(Cl)CS(=O)(=O)c1ccccc1 (stereo not given) | 33.5 µM |  | 36.3 µM | 44.7 µM |  | 53.1 µM | 30.9 µM | 9.59 µM |  | 3.8 µM |  | 46.7 µM |  | 33.6 µM |  | 4.54 µM |  |  |  | 
CC(C)(Oc1cccc(N2CCC[C@@H](C(=O)N(Cc3ccc(-c4cn[nH]c4)cc3)C3CC3)C2)c1)C(=O)N1CCNCC1 | 28.9 µM | 12.5 µM | 26 µM | 26.3 µM | 6.3 µM | 19.7 µM | 26.6 µM | 30.1 µM | 5.91 µM | 20.1 µM | 5.43 µM | 21 µM | 16.9 µM | 33.6 µM | 11.8 µM | 24.5 µM | 14 µM | 12.6 µM | 13.3 µM | 14.9 µM
O=C(O)c1cc(-c2ccc(-c3ccccc3)cc2)nc2cc3ccccc3cc12 | > 100 µM |  | > 100 µM | > 100 µM |  | > 100 µM | > 100 µM | > 100 µM |  | > 100 µM |  | > 100 µM |  | > 100 µM |  | > 100 µM |  |  |  | 
Nc1nc(N)c2c(Cl)c(CNc3ccc(Cl)c(Cl)c3)ccc2n1 | 5.43 µM |  | 12.2 µM | 11.2 µM |  | 10.3 µM | 19.1 µM | 3.87 µM |  | 13 µM |  | 33.7 µM |  | 16.1 µM |  | 12.8 µM |  |  |  | 
CCCCNC(=O)CC1=C(C)/C(=C/c2[nH]c(-c3ccc[nH]3)cc2OC)N=C1C | 21 µM | 1.6 µM | 3.48 µM | 12.1 µM | 2.18 µM | 11.1 µM | 19.9 µM | 3.91 µM | 1.68 µM | 4.04 µM | 2.74 µM | 8.77 µM | 2.76 µM | 8.96 µM | 2.28 µM | 5.43 µM | 3.03 µM | 2.86 µM | 3.74 µM | 1.83 µM
O=C1NC(=NCCc2ccccc2F)S/C1=C\c1ccc2ncccc2c1 | > 25 µM | 7.06 µM | > 25 µM | > 25 µM | 5.87 µM | > 25 µM | > 25 µM | > 25 µM | 6.54 µM | > 25 µM | 7.59 µM | > 25 µM | 7.82 µM | > 25 µM | 11.4 µM | > 25 µM | 6.12 µM | 4.69 µM | 6.48 µM | 8.42 µM
C/C(=N\O)C1CC(CC(=O)O)C1(C)C (stereo not given) | > 100 µM |  | > 100 µM | > 100 µM |  | > 100 µM | > 100 µM | > 100 µM |  | > 100 µM |  | > 100 µM |  | > 100 µM |  | > 100 µM |  |  |  | 
CCc1nc(N)nc(N)c1-c1ccc(N2CCNCC2)c([N+](=O)[O-])c1 | > 100 µM |  | > 100 µM | > 100 µM |  | > 100 µM | > 100 µM | 31.9 µM |  | 40.5 µM |  | > 100 µM |  | > 100 µM |  | 37.3 µM |  |  |  | 
CN(C)Cc1ccc(O)c(CN(C)C)n1 | > 100 µM |  | > 100 µM | > 100 µM |  | > 100 µM | > 100 µM | > 100 µM |  | > 100 µM |  | > 100 µM |  | > 100 µM |  | > 100 µM |  |  |  | 

Source: PubChem BioAssay (NCI)
